From ChEMBL document CHEMBL5120971, “Network Pharmacology Research and Dual-omic Analyses Reveal the Molecular Mechanism of Natural Product Nodosin Inhibiting Muscle-Invasive Bladder Cancer in Vitro and in Vivo” (J Nat Prod, 2022)
Activity calls are given as the source filed them.

Columns and labels:
T-24 [1] = test: Effect on DDB1 expression in human T24 cells at 6 uM measured after 24 to 30 hrs by proteomic analysis; type: functional, cell-based; settings: time 24-30 hrs
T-24 [2] = test: Antitumor activity against human T24 cells xenografted in BALB/c mouse assessed as reduction in tumor growth at 2 mg/kg, ip administered at 2 days interval; type: functional, organism-based
T-24 [3] = test: Induction of apoptosis in human T24 cells assessed as up regulation of LC3 expression at 6 to 12 uM measured after 24 hrs by immunofluorescence analysis; type: functional, cell-based; settings: dose 6-12 µM
T-24 [4] = test: Induction of apoptosis in human T24 cells assessed as effect on AIFM2 expression at 6 uM measured after 24 to 30 hrs by proteomic analysis; type: functional, cell-based; settings: time 24-30 hrs
T-24 [5] = test: Induction of ROS generation in human T24 cells at 4 to 10 uM measured after 6 hrs by H2DCFDA probe based flow cytometry; type: functional, cell-based; settings: dose 4-10 µM
T-24 [6] = test: Antimigratory activity against human T24 cells at 4 to 12 uM measured after 24 hrs by scratch test; type: functional, cell-based; settings: dose 4-12 µM
T-24 [7] = test: Induction of autophagy in human T24 cells assessed as effect on RAB24 gene expression at 6 uM measured after 12 to 18 hrs by transcriptome analysis; type: functional, cell-based; settings: time 12-18 hrs
T-24 [8] = test: Induction of apoptosis in human T24 cells assessed as effect on SQSTM1 expression at 6 uM measured after 24 to 30 hrs by proteomic analysis; type: functional, cell-based; settings: time 24-30 hrs
T-24 [9] = test: Antitumor activity against human T24 cells xenografted in BALB/c mouse assessed as reduction in tumor weight at 2 mg/kg, ip administered at 2 days interval; type: functional, organism-based
T-24 [10] = test: Induction of mitochondrial membrane disruption in human T24 cells at 4 to 8 uM measured after 48 hrs by transmission electron microscopy; type: cell-based; settings: dose 4-8 µM
T-24 [11] = test: Induction of apoptosis in human T24 cells assessed as effect on RMDN3 expression at 6 uM measured after 24 to 30 hrs by proteomic analysis; type: functional, cell-based; settings: time 24-30 hrs
T-24 [12] = test: Induction of cell membrane disruption in human T24 cells at 4 to 8 uM measured after 48 hrs by transmission electron microscopy; type: cell-based; settings: dose 4-8 µM
T-24 [13] = test: Effect on MDC1 expression in human T24 cells at 6 uM measured after 24 to 30 hrs by proteomic analysis; type: functional, cell-based; settings: time 24-30 hrs
T-24 [14] = test: Induction of autophagy in human T24 cells assessed as effect on PRKAA2 gene expression at 6 uM measured after 12 to 18 hrs by transcriptome analysis; type: functional, cell-based; settings: time 12-18 hrs
T-24 [15] = test: Induction of apoptosis in human T24 cells assessed as effect on ZFP36L1 expression at 6 uM measured after 24 to 30 hrs by proteomic analysis; type: functional, cell-based; settings: time 24-30 hrs
T-24 [16] = test: Antimigratory activity against human T24 cells assessed as down regulation of PALLD expression at 6 uM measured after 24 to 30 hrs by proteomic analysis; type: functional, cell-based; settings: time 24-30 hrs

Measured: Activity

C=C1C(=O)[C@]23C[C@H]1C[C@@H](O)[C@H]2[C@@]12CO[C@@H](O)[C@@H]1C(C)(C)CC[C@@H]2OC3=O [NODOSIN]
active: all assays above
